Test results published in PubChem BioAssay (NCI).
Values joined by “and” are separate entries in the source; they are usually repeats but may differ in a detail not shown here. Equal values may be shown once.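 Grown in 96-well plates, cells were treated for 48 hours with each compound at five concentrations. Insufficient inhibition: endpoint recorded as highest concentration tested. Abbreviation: GI50, concentration required for 50% inhibition of growth. The concentration for full growth arrest is given as TGI.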

What was measured:
Assay in all cases: inhibition of tumour cell growth, NCI panel, 48 h
[1] = system: A498 renal
[2] = system: CCRF-CEM leukemia
[3] = system: HCT-116 colon
[4] = system: HOP-92 NSCLC
[5] = system: MOLT-4 leukemia
[6] = system: OVCAR-3 ovarian
[7] = system: PC-3 prostate
[8] = system: SK-MEL-5 melanoma
[9] = system: SN12C renal
[10] = system: TK-10 renal

Structure (SMILES) | GI50 [1] | TGI [1] | GI50 [2] | TGI [2] | GI50 [3] | TGI [3] | GI50 [4] | TGI [4] | GI50 [5] | TGI [5] | GI50 [6] | TGI [6] | GI50 [7] | TGI [7] | GI50 [8] | TGI [8] | GI50 [9] | TGI [9] | GI50 [10] | TGI [10]
O=C(NCc1cccnc1)/C(=C\c1ccc(Br)cc1)S(=O)(=O)c1ccccc1 | 1.36 µM | 2.71 µM | 315 nM | 4.5 µM | 460 nM | 1.84 µM | 745 nM | 2.23 µM | 419 nM | 2.95 µM | 419 nM | 1.7 µM | 1.06 µM | 2.61 µM | 1380 nM | 2.69 µM | 727 nM | 2.19 µM | 1.5 µM | 2.91 µM
CN(C)CCCNc1nn2c(=O)c3ccccc3nc2c2ccccc12 | 9.06 µM | 21.4 µM | 13700 nM | 48.5 µM | 3720 nM | 15.7 µM | 4130 nM | 59.3 µM | 2470 nM | 7.16 µM | 10500 nM | 26.4 µM | 11.7 µM | 36.9 µM | 7740 nM | 20.9 µM | 5950 nM | > 100 µM | 11.1 µM | 45.4 µM
COc1ccc(-c2ccc3c(NC(=O)C4CC4)n[nH]c3n2)cc1 | > 25 µM | > 25 µM | > 25000 nM | > 25 µM | > 25000 nM | > 25 µM | 8020 nM | > 25 µM | > 25000 nM | > 25 µM | > 25000 nM | > 25 µM | > 25 µM | > 25 µM | > 25000 nM | > 25 µM | > 25000 nM | > 25 µM | > 25 µM | > 25 µM
O=C1c2ccccc2C(=O)c2c(NCCCNCCO)ccc(NCCCNCCO)c21 | – | 31.1 µM | – | 23.1 µM | – | 16.8 µM | – | 26.2 µM | – | 18.5 µM | – | 27.3 µM | – | 22.6 µM | – | 28.7 µM | – | 14.4 µM | – | 40.6 µM
Cn1nc(C(F)(F)F)c(-c2ccc(Cl)c(C(F)(F)F)c2)c1-c1ccc(OCc2ccc(Cl)cc2)cc1O | 1.05 µM | 4.1 µM | 1850 nM | 6.81 µM | 1500 nM | 5.46 µM | 1110 nM | 3.02 µM | 1810 nM | 6.2 µM | 1660 nM | 5.8 µM | 1.66 µM | 6.68 µM | 1020 nM | 2.23 µM | 1650 nM | 5.92 µM | 1.91 µM | 7.13 µM
CC[C@@]1(O)C(=O)NCc2c1cc1n(c2=O)Cc2cc3ccccc3nc2-1 | 3.95 µM | 53.1 µM | 253 nM | – | 2750 nM | > 74.2 µM | – | > 29.4 µM | 300 nM | 2.2 µM | 34400 nM | > 100 µM | 7.57 µM | > 100 µM | 2770 nM | 18.7 µM | 2030 nM | > 32.6 µM | > 100 µM | > 100 µM
COc1ccc(-c2ccc(/C=C/C(=O)NO)cc2)cc1 | 1.4 µM | 3.76 µM | 48.1 nM | > 100 µM | 451 nM | 11.4 µM | 1190 nM | 4.98 µM | 375 nM | – | 518 nM | 2.76 µM | 1.09 µM | 12.3 µM | 1100 nM | 3 µM | 864 nM | 10.9 µM | 1.55 µM | 21.3 µM
CCN1CCN(c2nc(NNC(=O)Cc3ccccc3)nc(N3CCN(C(c4ccccc4)c4ccccc4)CC3)n2)CC1 | 7.3 µM | 20.9 µM | 2510 nM | 6.71 µM | 1720 nM | 3.13 µM | 1890 nM | 4.7 µM | 2630 nM | 8.39 µM | 2000 nM | 4.08 µM | 2.51 µM | 8.61 µM | 1710 nM | 3.12 µM | 1850 nM | 3.44 µM | 1.97 µM | 3.85 µM
Cc1ccc2c(c1)C(=O)c1c-2n(CCCN)c(=O)c2cc([N+](=O)[O-])ccc12 | 5.68 µM | 17.1 µM | 6.83 nM | 0.0559 µM | 166 nM | 0.718 µM | 435 nM | 1.18 µM | 24.4 nM | 0.129 µM | 521 nM | 1.32 µM | 0.437 µM | 1.17 µM | 1100 nM | 3.6 µM | 281 nM | 1.02 µM | 0.567 µM | 1.24 µM
C/C(=C\c1ccc(Cl)cc1)C(C)(C)C(=O)O | – | > 100 µM | – | > 100 µM | – | > 100 µM | – | > 100 µM | – | > 100 µM | – | > 100 µM | – | > 100 µM | – | > 100 µM | – | > 100 µM | – | > 100 µM
O=C(/C=C/c1ccc(C(F)(F)F)cc1)c1ccc(Nc2nc(NCCO)nc(NCCO)n2)cc1 | 8.85 µM | 21.2 µM | 3240 nM | 10.7 µM | 1790 nM | 3.9 µM | 5280 nM | 25 µM | 2680 nM | 10.7 µM | 2020 nM | 4.19 µM | 3.29 µM | 13.1 µM | 3120 nM | 10.5 µM | 2710 nM | 9.7 µM | 2.93 µM | 14.5 µM
COc1ccc(-c2oc(=O)ccc2C#Cc2cc(OC)c(OC)c(OC)c2)cc1O | 30 µM | 76.8 µM | 2790 nM | > 100 µM | 18600 nM | > 100 µM | 5470 nM | 31.2 µM | 3170 nM | > 100 µM | 20900 nM | 70.6 µM | 23.3 µM | > 100 µM | 7550 nM | 26.6 µM | 41500 nM | > 100 µM | 83.9 µM | > 100 µM
CC(CN=C(CC(=O)c1ccc(Br)cc1)c1ccccc1)N=C(CC(=O)c1ccc(Br)cc1)c1ccccc1 (configuration not stated) | 38.8 µM | > 100 µM | 20100 nM | > 100 µM | 2750 nM | > 100 µM | 11500 nM | 78.8 µM | 7950 nM | > 100 µM | – | 14.7 µM | 29.4 µM | > 100 µM | 2180 nM | 8.9 µM | 64100 nM | > 100 µM | 7.56 µM | > 100 µM
O=C1c2ccccc2C(=O)c2c1ccc(C(Br)Br)c2[N+](=O)[O-] | 1.67 µM | 7.73 µM | 582 nM | 2.53 µM | 739 nM | 2.19 µM | 1700 nM | 3.3 µM | 1230 nM | 3.43 µM | 1630 nM | 3.04 µM | 1.74 µM | 3.47 µM | 1770 nM | 3.73 µM | 1830 nM | 3.86 µM | 1.95 µM | 3.84 µM
O=C(c1ccccc1Nc1ccnc(C(F)(F)F)c1)N1CCN(c2cccc(Cl)c2)CC1 | 12.7 µM | 46.3 µM | 11200 nM | > 84.5 µM | 12200 nM | 29 µM | 914 nM | 25 µM | 11900 nM | 44.5 µM | 19000 nM | > 80.9 µM | 9.45 µM | 53 µM | 8290 nM | 21.8 µM | 16400 nM | 45 µM | 30.8 µM | > 100 µM
CC(=O)OCC1OC(OC2C(COC(C)=O)OC(OCCC[S-])C(OC(C)=O)C2OC(C)=O)C(OC(C)=O)C(OC(C)=O)C1OC(C)=O.[Au+].c1ccc(CN2[CH-]N(Cc3ccccc3)C(c3ccccc3)=C2c2ccccc2)cc1 (configuration not stated) | 3.41 µM | 11.1 µM | 3390 nM | 21.5 µM | 2720 nM | 10.9 µM | 2370 nM | 6.24 µM | 3420 nM | 26 µM | 2620 nM | 8.48 µM | 3.28 µM | 15 µM | 1970 nM | 4.41 µM | 3320 nM | 15 µM | 3.57 µM | 14.8 µM
CCCS(=O)(=O)Nc1ccc(F)c(C(=O)c2c[nH]c3ncc(-c4ccc(Cl)cc4)cc23)c1F | 1.72 µM and 2.59 µM | 12.3 µM and > 8.97 µM | 4010 nM and 5420 nM | 23.7 µM and > 10 µM | 4460 nM and 5810 nM | 16.9 µM and > 10 µM | 2630 nM and 4840 nM | 12.5 µM and > 10 µM | 3720 nM and > 8330 nM | 16.1 µM and > 10 µM | 7650 nM and > 8660 nM | 25.5 µM and > 10 µM | 2.98 µM and 6.01 µM | 16.7 µM and > 10 µM | 471 nM and 1850 nM | 13.6 µM and > 10 µM | 4520 nM and > 8400 nM | 21.9 µM and > 10 µM | 5.99 µM and 5.48 µM | 34.6 µM and > 10 µM
COc1ccc(OC)c(-c2nc3sccn3c2/C=C2/C(=O)Nc3ccc(Cl)cc32)c1 | 20.8 µM | 38.8 µM | 32100 nM | > 100 µM | 29700 nM | > 100 µM | 24400 nM | > 100 µM | 22100 nM | 69.4 µM | 21700 nM | 55.2 µM | 27.2 µM | > 100 µM | 17400 nM | 33.1 µM | 35200 nM | > 100 µM | 29.9 µM | > 100 µM
Cc1ccc2nc3c(C)c(Cl)c(=O)cc-3sc2c1 | – | > 100 µM | – | 56.8 µM | – | 58 µM | – | > 92.3 µM | – | 41.3 µM | – | > 100 µM | – | > 100 µM | – | 29.7 µM | – | > 100 µM | – | > 100 µM
CN(C)C[C@H]1CC[C@@H](CN(C)C)C1=O | – | > 50 µM | 1230 nM | 5.02 µM | – | 15.6 µM | – | 20.5 µM | – | 4.69 µM | – | 16.6 µM | – | 15.7 µM | – | 23.6 µM | – | 15.4 µM | – | 15 µM
COc1ccc(C(=O)c2cc(OC)c(OC)c(OC)c2)cc1OC(C)=O | 1.61 µM | 6.43 µM | 35.3 nM | > 100 µM | 29.7 nM | > 100 µM | 1730 nM | > 100 µM | < 19.9 nM | > 43.3 µM | 29.2 nM | 0.0848 µM | 0.0208 µM | > 100 µM | 32.5 nM | 0.311 µM | 50.9 nM | > 100 µM | 59 µM | > 100 µM
